Measured values: patent US20240018123A1, “COMPOUND FOR INHIBITING OR DISINTEGRATING ANDROGEN RECEPTOR, AND PHARMACEUTICAL USE THEREOF” (KOREA RESEARCH INSTITUTE OF CHEMICAL TECHNOLOGY, priority 2020, published 2024)

Tests used:
Androgen receptor (AR) = biological target: T1, Androgen receptor (AR) (Homo sapiens, UniProt P10275, T878A); assay: Assessment of AR proteolytic activity (Western blotting of LNCap cell lysates); format: cell-based; conditions: 24 hours of treatment, Western blotting quantified with Image J
T1 construct: 5.5×10^5 LNCap cells were injected into each well of a 6-well plate; endogenous in cells; host or cells: LNCaP
T1 sequence (P10275 1-920 T878A): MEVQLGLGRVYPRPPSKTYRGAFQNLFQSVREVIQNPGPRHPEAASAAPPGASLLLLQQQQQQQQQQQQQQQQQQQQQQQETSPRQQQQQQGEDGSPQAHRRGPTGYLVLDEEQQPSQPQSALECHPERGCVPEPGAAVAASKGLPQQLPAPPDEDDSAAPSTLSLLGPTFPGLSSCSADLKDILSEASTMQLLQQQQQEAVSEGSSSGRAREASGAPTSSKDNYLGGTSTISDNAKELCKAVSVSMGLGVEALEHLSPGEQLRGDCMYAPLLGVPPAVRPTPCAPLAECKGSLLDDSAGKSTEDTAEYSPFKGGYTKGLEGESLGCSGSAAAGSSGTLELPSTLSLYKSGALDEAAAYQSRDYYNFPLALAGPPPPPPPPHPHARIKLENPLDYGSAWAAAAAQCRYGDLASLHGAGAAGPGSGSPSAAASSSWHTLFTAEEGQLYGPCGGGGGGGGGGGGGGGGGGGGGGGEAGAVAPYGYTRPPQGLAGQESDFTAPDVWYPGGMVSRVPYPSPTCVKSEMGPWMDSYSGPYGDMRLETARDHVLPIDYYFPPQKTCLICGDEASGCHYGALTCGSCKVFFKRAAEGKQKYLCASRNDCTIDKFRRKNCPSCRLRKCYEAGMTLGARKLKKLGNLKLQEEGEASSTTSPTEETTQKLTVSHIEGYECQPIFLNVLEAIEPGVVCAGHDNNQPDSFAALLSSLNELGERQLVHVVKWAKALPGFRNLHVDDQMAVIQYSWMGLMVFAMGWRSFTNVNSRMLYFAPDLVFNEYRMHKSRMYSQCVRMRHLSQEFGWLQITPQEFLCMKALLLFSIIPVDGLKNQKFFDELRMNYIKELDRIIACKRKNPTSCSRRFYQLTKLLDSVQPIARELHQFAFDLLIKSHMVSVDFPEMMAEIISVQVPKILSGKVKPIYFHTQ
How it was run: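 LNCap cells seeded at 5.5×10^5 per well and treated with compound for 24 hours. Lysates prepared in RIPA buffer (pH 7.5, with protease inhibitors). AR protein levels assessed by Western blot with densitometric quantification.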

Degradation (1 μM treated in LNCaP, % AR remaining) (Androgen receptor (AR))	SMILES	CC50 (VCaP cells)	CC50 (LNCaP cells)
7%	CC1(C)[C@H](NC(=O)c2ccc(N3CCN(CC4CCN(C(=O)C5CN(c6ccc7nnn(C8CCC(=O)NC8=O)c(=O)c7c6)C5)CC4)CC3)cc2)C(C)(C)[C@H]1Oc1ccc(C#N)c(Cl)c1 (stereo partly drawn) [Example 11, N-((1r,3r)-3-(3-chloro-4-cyanophenoxy)-2,2,4,4-tetramethylcyclobutyl)-4-(4-((1-(1-(3-(2,6-dioxopiperidin-3-yl)-4-oxo-3,4-dihydrobenzo[d][1,2,3]triazin-6-yl)azetidine-3-carbonyl)piperidin-4-yl)methyl)piperazin-1-yl)benzamide]	74.7 nM	91.4 nM
13%	CC1(C)[C@H](NC(=O)c2ccc(N3CCN(CCC4CCN(C(=O)COc5ccc6nnn(C7CCC(=O)NC7=O)c(=O)c6c5)CC4)CC3)cc2)C(C)(C)[C@H]1Oc1ccc(C#N)c(Cl)c1 (stereo partly drawn) [Example 24, N-((1r,3r)-3-(3-chloro-4-cyanophenoxy)-2,2,4,4-tetramethylcyclobutyl)-4-(4-(2-(1-(2-((3-(2,6-dioxopiperidin-3-yl)-4-oxo-3,4-dihydrobenzo[d][1,2,3]triazin-6-yl)oxy)acetyl)piperidin-4-yl)ethyl)piperazin-1-yl)benzamide]	107 nM	1480 nM
43.6%	CC1(C)[C@H](NC(=O)c2ccc(N3CCN(CCCC4CCN(C(=O)C5CN(c6ccc7nnn(C8CCC(=O)NC8=O)c(=O)c7c6)C5)CC4)CC3)cc2)C(C)(C)[C@H]1Oc1ccc(C#N)c(Cl)c1 (stereo partly drawn) [Example 47, N-((1r,3r)-3-(3-chloro-4-cyanophenoxy)-2,2,4,4-tetramethylcyclobutyl)-4-(4-(3-(1-(1-(3-(2,6-dioxopiperidin-3-yl)-4-oxo-3,4-dihydrobenzo[d][1,2,3]triazin-6-yl)azetidine-3-carbonyl)piperidin-4-yl)propyl)piperazin-1-yl)benzamide]	23.7 nM	168 nM
20%	CC1(C)[C@H](NC(=O)c2ccc(C#CC3CCN(CC4CCN(c5ccc6nnn(C7CCC(=O)NC7=O)c(=O)c6c5)CC4)CC3)cc2)C(C)(C)[C@H]1Oc1ccc(C#N)c(Cl)c1 (stereo partly drawn) [Example 99, N-((1r,3r)-3-(3-chloro-4-cyanophenoxy)-2,2,4,4-tetramethylcyclobutyl)-4-((1-((1-(3-(2,6-dioxopiperidin-3-yl)-4-oxo-3,4-dihydrobenzo[d][1,2,3]triazin-6-yl)piperidin-4-yl)methyl)piperidin-4-yl)ethynyl)benzamide]	2 nM	31.5 nM
50%	CC1(C)[C@H](NC(=O)c2ccc(N3CCN(CCC4CCN(C(=O)CNc5ccc6nnn(C7CCC(=O)NC7=O)c(=O)c6c5)CC4)CC3)cc2)C(C)(C)[C@H]1Oc1ccc(C#N)c(Cl)c1 (stereo partly drawn) [Example 25, N-((1r,3r)-3-(3-chloro-4-cyanophenoxy)-2,2,4,4-tetramethylcyclobutyl)-4-(4-(2-(1-((3-(2,6-dioxopiperidin-3-yl)-4-oxo-3,4-dihydrobenzo[d][1,2,3]triazin-6-yl)glycyl)piperidin-4-yl)ethyl)piperazin-1-yl)benzamide]	45.7 nM	2130 nM
69%	CC1(C)[C@H](NC(=O)c2ccc(N3CCN(CCC4CCN(c5cccc6nnn(C7CCC(=O)NC7=O)c(=O)c56)CC4)CC3)cc2)C(C)(C)[C@H]1Oc1ccc(C#N)c(Cl)c1 (stereo partly drawn) [Example 28, N-((1r,3r)-3-(3-chloro-4-cyanophenoxy)-2,2,4,4-tetramethylcyclobutyl)-4-(4-(2-(1-(3-(2,6-dioxopiperidin-3-yl)-4-oxo-3,4-dihydrobenzo[d][1,2,3]triazin-5-yl)piperidin-4-yl)ethyl)piperazin-1-yl)benzamide]	1580 nM	1280 nM
18%	CC1(C)[C@H](NC(=O)c2ccc(C#CC3CCN(C(=O)CNc4ccc5nnn(C6CCC(=O)NC6=O)c(=O)c5c4)CC3)cc2)C(C)(C)[C@H]1Oc1ccc(C#N)c(Cl)c1 (stereo partly drawn) [Example 143, N-((1r,3r)-3-(3-chloro-4-cyanophenoxy)-2,2,4,4-tetramethylcyclobutyl)-4-((1-((3-(2,6-dioxopiperidin-3-yl)-4-oxo-3,4-dihydrobenzo[d][1,2,3]triazin-6-yl)glycyl)piperidin-4-yl)ethynyl)benzamide]	6.9 nM	17.6 nM

The next lines start with the molecule.

SMILES	Degradation (1 μM treated in LNCaP, % AR remaining) (Androgen receptor (AR))	CC50 (VCaP cells)	CC50 (LNCaP cells)
CC1(C)[C@H](NC(=O)c2ccc(N3CCN(CC4(F)CCN(C(=O)C5CN(c6ccc7nnn(C8CCC(=O)NC8=O)c(=O)c7c6)C5)CC4)CC3)cc2)C(C)(C)[C@H]1Oc1ccc(C#N)c(Cl)c1 (stereo partly drawn) [Example 63, N-((1r,3r)-3-(3-chloro-4-cyanophenoxy)-2,2,4,4-tetramethylcyclobutyl)-4-(4-((1-(1-(3-(2,6-dioxopiperidin-3-yl)-4-oxo-3,4-dihydrobenzo[d][1,2,3]triazin-6-yl)azetidine-3-carbonyl)-4-fluoropiperidin-4-yl)methyl)piperazin-1-yl)benzamide]	6%	14.8 nM	53.2 nM
CC1(C)[C@H](NC(=O)c2ccc(N3CCN(CCC4CCN(c5ccc6nnn(C7CCC(=O)NC7=O)c(=O)c6c5)CC4)CC3)cc2)C(C)(C)[C@H]1Oc1ccc(C#N)c(Cl)c1 (stereo partly drawn) [Example 29, N-((1r,3r)-3-(3-chloro-4-cyanophenoxy)-2,2,4,4-tetramethylcyclobutyl)-4-(4-(2-(1-(3-(2,6-dioxopiperidin-3-yl)-4-oxo-3,4-dihydrobenzo[d][1,2,3]triazin-6-yl)piperidin-4-yl)ethyl)piperazin-1-yl)benzamide]	6%	120 nM	425 nM
CC1(C)[C@H](NC(=O)c2ccc(-n3cc(C4CCN(C(=O)C5CN(c6ccc7nnn(C8CCC(=O)NC8=O)c(=O)c7c6)C5)CC4)nn3)cc2)C(C)(C)[C@H]1Oc1ccc(C#N)c(Cl)c1 (stereo partly drawn) [Example 101, N-((1r,3r)-3-(3-chloro-4-cyanophenoxy)-2,2,4,4-tetramethylcyclobutyl)-4-(4-(1-(1-(3-(2,6-dioxopiperidin-3-yl)-4-oxo-3,4-dihydrobenzo[d][1,2,3]triazin-6-yl)azetidine-3-carbonyl)piperidin-4-yl)-1H-1,2,3-triazol-1-yl)benzamide]	40%	15.5 nM	7.06 nM
CC1(C)[C@H](NC(=O)c2ccc(N3CCN(CCC4CCN(C(=O)C5CN(c6ccc7nnn(C8CCC(=O)NC8=O)c(=O)c7c6)C5)CC4)CC3)cc2)C(C)(C)[C@H]1Oc1ccc(C#N)c(Cl)c1 (stereo partly drawn) [Example 27, N-((1r,3r)-3-(3-chloro-4-cyanophenoxy)-2,2,4,4-tetramethylcyclobutyl)-4-(4-(2-(1-(1-(3-(2,6-dioxopiperidin-3-yl)-4-oxo-3,4-dihydrobenzo[d][1,2,3]triazin-6-yl)azetidine-3-carbonyl)piperidin-4-yl)ethyl)piperazin-1-yl)benzamide]	14%	37.1 nM	552 nM
CC1(C)[C@H](NC(=O)c2ccc(-c3cnn(C4CCN(CC5CCN(C(=O)C6CN(c7ccc8nnn(C9CCC(=O)NC9=O)c(=O)c8c7)C6)CC5)CC4)c3)cc2)C(C)(C)[C@H]1Oc1ccc(C#N)c(Cl)c1 (stereo partly drawn) [Example 83, N-((1r,3r)-3-(3-chloro-4-cyanophenoxy)-2,2,4,4-tetramethylcyclobutyl)-4-(1-(1-((1-(1-(3-(2,6-dioxopiperidin-3-yl)-4-oxo-3,4-dihydrobenzo[d][1,2,3]triazin-6-yl)azetidine-3-carbonyl)piperidin-4-yl)methyl)piperidin-4-yl)-1H-pyrazol-4-yl)benzamide]	43%	6 nM	13.7 nM
CC1(C)[C@H](NC(=O)c2ccc(C#CC3CCN(C(=O)COc4ccc5nnn(C6CCC(=O)NC6=O)c(=O)c5c4)CC3)cc2)C(C)(C)[C@H]1Oc1ccc(C#N)c(Cl)c1 (stereo partly drawn) [Example 144, N-((1r,3r)-3-(3-chloro-4-cyanophenoxy)-2,2,4,4-tetramethylcyclobutyl)-4-((1-(2-((3-(2,6-dioxopiperidin-3-yl)-4-oxo-3,4-dihydrobenzo[d][1,2,3]triazin-6-yl)oxy)acetyl)piperidin-4-yl)ethynyl)benzamide]	14.7%	21 nM	144 nM
